Assay results from patent US20240207421A1, “NERVE TARGETING PEPTIDES AND METHODS OF USE” (ALUME BIOSCIENCES, INC., priority 2020, published 2024).

Each substance was assayed on Laminin 421/521 (assay: Phage display library screening (Example 2), NEB laminin-binding peptides). Conditions: Laminin 421/521, not 211 and 411; combined unique sequence count, Python/R script analysis.
Parameters: species or system human
Experimental: Phage display library screens were used to identify peptides that bind to target proteins (including specific laminin trimers) that are expressed in human nerves, as described in Table 3. These screens were also carried out to identify peptides that could bind selectively to nerves versus muscle. Such peptides could therefore be useful for systemic in-vivo labeling of nerves during fluorescence assisted surgery. Specifically, m 13 phage libraries expressing 7 or 12 random amino acid peptides, or a cyclic peptide CX7C, on the N-terminus of the minor coat protein pIII (New England Biolabs; NEB) were processed through multiple rounds of selection for binding to target proteins expressed in nerves, or to excised human nerves, nerve extracts, or muscle, as described further below.
For screening against the specified target proteins in Table 1, including LN211, LN411, LN421, and LN521, the phage library was processed by up to 4 binding and wash cycles. For selection, phage libraries were incubated for up to 24 hours at 4° C. in 96 well plates that had been coated with one of the target proteins. Plates were then washed with PBS and phage were eluted using 0.2M glycine pH 2.0. Phage supernatants where then neutralized with Tris pH 9.0 prior to plating on TGI bacteria and LB agar plates. Colonies were counted to determine titer followed by DNA preparation of pools of phage and NextGen sequencing. After rounds of selection, phage were pooled and amplified for iterative selection. Phage that were bound at each round were sequenced. NextGen sequencing of pools after 2, 3 and 4 rounds of selection was used to isolate candidate sequences that were analyzed further to identify those that specifically bound each unique target protein.
For all NEB sequence datasets, a python script was used to translate, trim, and filter the peptide sequences (see details above). A python script was used to group peptides from different assays according to laminin complex binding (laminin complex 211, 411, 421, or 521) and combine the unique sequence counts for each peptide. An R script was written to merge the peptide sequences from different data files and determine peptides that specifically bind one laminin complex and not the others, or that bind both laminin 421 and 521 but not 211 and 411.

| Substance | Count |
| --- | --- |
| VPVFLDQARVMK (Laminin 421/521-binding peptide) | 53 |
| CWSGNSRSC (Laminin 421/521-binding peptide) | 42 |
| YTPRNQL (Laminin 421/521-binding peptide) | 55 |
| GAMMNSNNLVAR (Laminin 421/521-binding peptide) | 43 |
| CKWTQLWGC (Laminin 421/521-binding peptide) | 40 |
| STNVQRA (Laminin 421/521-binding peptide) | 28 |
| CTGRISKHC (Laminin 421/521-binding peptide) | 43 |
| QTFGYSMFNVRT (Laminin 421/521-binding peptide) | 30 |
| WNANYGTMTRHA (Laminin 421/521-binding peptide) | 92 |
| CLKDTHLNC (Laminin 421/521-binding peptide) | 40 |
| CMNKIQRDC (Laminin 421/521-binding peptide) | 131 |
| CGETTAGKC (Laminin 421/521-binding peptide) | 33 |
| TALSHRHEAMRW (Laminin 421/521-binding peptide) | 28 |
| RLVTASMVSPSF (Laminin 421/521-binding peptide) | 95 |
| QINWKQADKNAD (Laminin 421/521-binding peptide) | 33 |
| GINLRALDLHAN (Laminin 421/521-binding peptide) | 27 |
| CHQRQQTYC (Laminin 421/521-binding peptide) | 55 |
| CHNADNNGC (Laminin 421/521-binding peptide) | 32 |
| ETYKVTRVISPW (Laminin 421/521-binding peptide) | 50 |
| TTNGVPGHDRSP (Laminin 421/521-binding peptide) | 46 |
| GQPRNIHLPGTH (Laminin 421/521-binding peptide) | 40 |
| CSLANPATC (Laminin 421/521-binding peptide) | 52 |
| WQWRSTELGYRY (Laminin 421/521-binding peptide) | 36 |
| GDAQILM (Laminin 421/521-binding peptide) | 38 |

| Substance | Count |
| --- | --- |
| IDQSGLQKSGMK (Laminin 421/521-binding peptide) | 29 |
| WRSPLTT (Laminin 421/521-binding peptide) | 30 |
| KISMNRLHANFT (Laminin 421/521-binding peptide) | 110 |
| AVVSQNQMSQQK (Laminin 421/521-binding peptide) | 64 |
| QALRTNYSPLNS (Laminin 421/521-binding peptide) | 32 |
| LARSSIMAANNV (Laminin 421/521-binding peptide) | 42 |
| WGANTTGRTHGG (Laminin 421/521-binding peptide) | 40 |
| HSTYAPG (Laminin 421/521-binding peptide) | 33 |
| SPDRTNWGWQTN (Laminin 421/521-binding peptide) | 29 |
| SNPKHVSSLGQM (Laminin 421/521-binding peptide) | 40 |
| QGWKDRLPIWRY (Laminin 421/521-binding peptide) | 29 |
| GSGFRNEEHSAH (Laminin 421/521-binding peptide) | 51 |
| CVLKCEDQKYRG (Laminin 421/521-binding peptide) | 27 |
| CNSWKAAKC (Laminin 421/521-binding peptide) | 29 |
| EDRMMTYRYTST (Laminin 421/521-binding peptide) | 29 |
| QGWFRHS (Laminin 421/521-binding peptide) | 121 |
| TLKAGTRANDGV (Laminin 421/521-binding peptide) | 32 |
| KASIAYD (Laminin 421/521-binding peptide) | 30 |
| SVQTPMWRSLVG (Laminin 421/521-binding peptide) | 28 |
| QTLQTRH (Laminin 421/521-binding peptide) | 44 |
| CPMHQSKTC (Laminin 421/521-binding peptide) | 28 |
| LGHQNGGRADMW (Laminin 421/521-binding peptide) | 35 |
| VYRNGGGLPLTA (Laminin 421/521-binding peptide) | 34 |
| GDLWNVP (Laminin 421/521-binding peptide) | 51 |

| Substance | Count |
| --- | --- |
| GPKNHHQ (Laminin 421/521-binding peptide) | 51 |
| FNSDSRSTHQED (Laminin 421/521-binding peptide) | 29 |
| LGPSTQGAGQTR (Laminin 421/521-binding peptide) | 38 |
| VVPSWPSVHRPP (Laminin 421/521-binding peptide) | 31 |
| TVARSTAQERSI (Laminin 421/521-binding peptide) | 28 |
| SVLSTGTANQRH (Laminin 421/521-binding peptide) | 28 |
| GSTTHPHFGLPG (Laminin 421/521-binding peptide) | 40 |
| TFGSGRSMPIQY (Laminin 421/521-binding peptide) | 34 |
| WVAAERR (Laminin 421/521-binding peptide) | 115 |
| GPMLKNLSDAVT (Laminin 421/521-binding peptide) | 31 |
| GGWQSLWDKPEH (Laminin 421/521-binding peptide) | 31 |
| GPLLFRG (Laminin 421/521-binding peptide) | 30 |
| DVIHSSRGAYFE (Laminin 421/521-binding peptide) | 36 |
| CSVWNSGNC (Laminin 421/521-binding peptide) | 43 |
| DDLLTAPRLGVW (Laminin 421/521-binding peptide) | 54 |
| CTDGRNFVC (Laminin 421/521-binding peptide) | 28 |
| FPLKIRT (Laminin 421/521-binding peptide) | 42 |
| HSFLGAR (Laminin 421/521-binding peptide) | 44 |
| TILKPAAQGFAD (Laminin 421/521-binding peptide) | 27 |
| SHDVANGTSVRT (Laminin 421/521-binding peptide) | 29 |
| LDRNADSVRAVL (Laminin 421/521-binding peptide) | 46 |
| KQELSDNLASHR (Laminin 421/521-binding peptide) | 50 |
| WSPANGWRHQTI (Laminin 421/521-binding peptide) | 36 |
| CSHHKLKQC (Laminin 421/521-binding peptide) | 359 |

| Substance | Count |
| --- | --- |
| SVESNSKLTMPR (Laminin 421/521-binding peptide) | 29 |
| SLLSVVNTSSKS (Laminin 421/521-binding peptide) | 31 |
| NWTHLGVARLQP (Laminin 421/521-binding peptide) | 36 |
| CNHLTQKLC (Laminin 421/521-binding peptide) | 45 |
| GLLDWGSLQGGN (Laminin 421/521-binding peptide) | 30 |
| LQSNAADHHQGM (Laminin 421/521-binding peptide) | 75 |
| AQNLRVHAWASL (Laminin 421/521-binding peptide) | 28 |
| CTAWTRQEC (Laminin 421/521-binding peptide) | 31 |
| DWTQVRVTNWFL (Laminin 421/521-binding peptide) | 35 |
| CSKHNHSRC (Laminin 421/521-binding peptide) | 295 |
| GYRSFIHENWSI (Laminin 421/521-binding peptide) | 68 |
| WPVRNLL (Laminin 421/521-binding peptide) | 67 |
| AGAYTSRHAFDE (Laminin 421/521-binding peptide) | 39 |
| CKSPAIKGC (Laminin 421/521-binding peptide) | 29 |
| AQRMNQA (Laminin 421/521-binding peptide) | 38 |
| CGLATNKSC (Laminin 421/521-binding peptide) | 39 |
| DRMYSTVPAEGL (Laminin 421/521-binding peptide) | 27 |
| CKSERGPEC (Laminin 421/521-binding peptide) | 30 |
| CQTSGHHQC (Laminin 421/521-binding peptide) | 31 |
| HTQIHRL (Laminin 421/521-binding peptide) | 28 |
| NNNAAMQNHGVR (Laminin 421/521-binding peptide) | 51 |
| SVVGWAAPRTAQ (Laminin 421/521-binding peptide) | 27 |
| IPVGERK (Laminin 421/521-binding peptide) | 124 |
